The text below walks through data of patent publication US8633319B2, “7-(1H-pyrazol-4-yl)-1,6-naphthyridine compounds as Syk inhibitors” (Glaxo Group Limited, priority 2010, dated 2014).

Data set [1] addresses T1, SYK lysate (Homo sapiens, UniProt P43405).
T1 construct: Stimulation of Ramos Cells with Anti-IgM Ab to Produce Syk & Preparation of Lysates; endogenous in cells; host or cells: Ramos B cells (human Burkitt's lymphoma, clone 296.4C10, ATCC), stimulated with anti-IgM and lysed in 1% Triton X-100
Nature of the data set: Basic Syk Enzyme Activity. It is filed as biochemical. The settings on record: read-out: average pIC50 (converted). The method, then:
3 μl of SYK lysate diluted 16-fold in assay buffer (20 mM TRIS pH 7.4, 0.01% BSA, 0.1% Pluronic F-68) was added to wells containing 0.1 μl of various concentrations of compound or DMSO vehicle (1.7% final) in a Greiner low volume 384 well black plate. Following 15 min pre-incubation at room temperature, the reaction was initiated by the addition of 3 μl of substrate reagent containing Y7 Sox peptide, (Invitrogen Cat. # KNZ3071, 5 μM final), ATP (35 μM final) and MgCl2 (10 mM final) in assay buffer. The reaction was incubated at room temperature before measuring fluorescence intensity (λex 360/λem 485) on an Envision plate reader (Perkin Elmer Life Sciences, Waltham, Mass., USA) at 15 min and 55 min post-substrate addition.
Ramos B Cells (human B cells of Burkitt's lymphoma, clone 296.4C10, ATCC) were cultured in suspension in growth medium (RPMI-1640, Sigma; supplemented with 2 mM L-glutamine, Gibco; 10 mM Hepes, Sigma; 1 mM sodium pyruvate, Sigma; 10% v/v heat-inactivated FCS, Gibco). Cells were grown in Corning Cellstacks (6360 cm^2) in 1 liter volume and viability and cell density were monitored daily. Cells were maintained at <1.5×10e6/ml and >92% viability.
Cells were stimulated at 20×10^6 cells/ml using 15 ug/ml (final concentration) anti-IgM antibody. Following harvest (as described above), a total of 4×10^9 cells were resuspended in 180 ml pre-warmed (37° C.) DPBS in a Corning 500 ml centrifuge bottle. 20 ml anti-IgM antibody at 150 ug/ml were added to each 500 ml centrifuge bottle (working stock made up in DPBS pre-warmed to 37° C.). Cells were incubated for exactly 5 min at 37° C. following the addition of anti IgM antibody. Following 5 min stimulation, 300 ml ice-cold DPBS were added to each bottle to stop the stimulation (temperature drops to ˜12° C.) then cells were centrifuged at 2000 rpm (Sorvall Legend RT+ centrifuge—pre-chilled to 4° C.). Cells were washed by resuspension in ice-cold DPBS and centrifugation as above. The cell pellet was then lysed in ice-cold lysis buffer containing 1% triton-x-100 at a ratio of 150 ul/1×10^7 cells (i.e. 48 ml lysis buffer). Following the addition of lysis buffer, the cells were pipetted up & down & kept on ice for 15 min. The clarified lysate was then obtained by centrifugation (Sorvall Evolution RC (SLA-1500 rotor, ˜20,000 g (˜14,500 rpm), 45 min, 4° C.).
Lysate was aliquoted, snap-frozen on dry-ice & stored at −80° C. prior to assay.
Lysis Buffer: 50 mM TRIS pH7.5+150 mM NaCl+1% Triton-X-100+2 mM EGTA+1:100 dilution inhibitor cocktails (phosphatase inhibitor cocktail set II, calbiochem cat no. 524625 & protease inhibitor cocktail set V, calbiochem cat no. 539137)

Data set [2] addresses T2, hERG (Homo sapiens, UniProt Q12809).
T2 construct: expressed in transfected cells; host or cells: CHO-K1 cells stably expressing human hERG; membrane fraction
Put plainly: Cy3B Dofetilide Fluoro-Ligand Binding Assay for hERG. The settings on record: membranes of CHO-K1 cells that express hERG, pH 7.4, probe Cy3b-Dofetilide fluoro-ligand, 1.0 nM, hERG-expressing CHO-K1 membranes. The method, then:
Compound potencies were determined by a fluoro-ligand^§ (Cy3b-Dofetilide) fluorescence polarisation assay.
hERG-expressing CHO-K1 membranes* (60 μg/ml) were incubated with 1.0 nM fluoro-ligand^§, in assay buffer (25 mM HEPES, 1.2 mM MgCl2, 100 mM KCl and 0.1% pluronic, pH adjusted to 7.4 using 5M KOH). The final potassium concentration in the assay was 100 mM. After 70 min mixing at room temperature, in the dark, 10 μl was dispensed into each well of a black LV Greiner 384-well plate containing 0.1 μl of test compound in DMSO. The plates were left to equilibrate for 2 h before reading on an Acquest™/Analyst™ imager. pIC50 data were generated using from an 11-point inhibition curve (top assay concentration of 50 μM and a 1:3 step-dilution), a […] curve-fit being applied using ABase and XC50 to analyse data and generate curve fits.
Chinese Hamster Ovary (CHO) cells stably expressing the human hERG receptor were grown to 80% confluency before being harvested by trypsinisation and subsequent centrifugation at 500 g for 10 min. Cell pellets were frozen at −80 C before membrane production. The frozen pellet was thawed on ice, re-suspended and homogenised in 10 volumes of membrane buffer (50 mM HEPES, pH 7.4, 1 mM EDTA, 1 mM PMSF, 2×10^-6M Pepstatin A). The membrane suspension was centrifuged for 20 min at 500 g, the pellet discarded and the supernatent spun again at 48,000 g for 30 min. Following the second centrifugation the remaining pellet containing the membrane fraction was re-suspended in an appropriate volume (4 ml for each ml of frozen cell pellet) and assayed for protein concentration.

Data set [3] relates to Whole blood B cells. Nature of the data set: CD69 Whole Blood Assay. It is filed as cell-based. To be noted: Homo sapiens, B-cell, anti-IgM stimulated. How it is done:
Whole blood B cells are stimulated ex-vivo using anti-IgM. […] The subsequent autophosphorylation of Syk leads to initiation of a signalling cascade resulting in B cell activation as indicated by expression of the activation marker CD69 on the cell surface. CD20/CD69+ve whole blood B cells are detected by flow cytometry.
100 μl heparinised human blood was added to a 5 ml polypropylene tube containing 1 μl appropriately diluted compound solution and incubated for 25 min at 37° C. with 5% CO2. B cells were stimulated with 10 μl Fab′2 fragments of goat anti-human IgM (43 μg/ml final concentration) for a further 3.5 h under the conditions previously described. The red blood cells were lysed and all other cells fixed by the addition of 2 ml Lyse/Fix buffer for 10 min at room temperature.
The cells were stained using a cocktail of mouse anti-human CD20 FITC and mouse anti-human CD69 PE conjugated antibodies. CD20/CD69+ve B cells present in the sample were detected by flow cytometry.
Compound was prepared as a 10 mM stock in DMSO, further diluted down in DMSO to 1 mM and a dilution series prepared in DMSO using 7 successive 3-fold dilutions to give the final concentration range to be tested of 1×10^−5 to 4.57×10^−9M. Compound dilutions were prepared using the Biomek 2000 automated robotic pipetting system.

Data set [4] deals with allergic rhinitis. To be noted: intranasal, phase I/II; cited from earlier work.
For data set [5], the system named is allergic rhinitis. To be noted: phase II; cited from earlier work.
The test system of data set [6] is B-Cell non-Hodgkin's lymphoma (NHL). To be noted: cited from earlier work.
The subject of data set [7] is B lymphoma (BKS-2). The settings on record: mouse, in vivo; cited from earlier work.
Where [8] appears, read: as the free base, read-out: average IC50.
Where [9] appears, read: form not stated (first list), read-out: average pIC50 (converted).
The mark [10] stands for this setting: as the free base, read-out: average pIC50 (converted).
Setting [11] is: hydrochloric acid salts, read-out: average IC50.
[12] abbreviates: hydrochloric acid salts, read-out: average pIC50 (converted).

Where two headings read alike, the source gives them in different places. A value given as a limit tells only on which side of the number the result lay.

T2 sequence (Q12809 whole entry): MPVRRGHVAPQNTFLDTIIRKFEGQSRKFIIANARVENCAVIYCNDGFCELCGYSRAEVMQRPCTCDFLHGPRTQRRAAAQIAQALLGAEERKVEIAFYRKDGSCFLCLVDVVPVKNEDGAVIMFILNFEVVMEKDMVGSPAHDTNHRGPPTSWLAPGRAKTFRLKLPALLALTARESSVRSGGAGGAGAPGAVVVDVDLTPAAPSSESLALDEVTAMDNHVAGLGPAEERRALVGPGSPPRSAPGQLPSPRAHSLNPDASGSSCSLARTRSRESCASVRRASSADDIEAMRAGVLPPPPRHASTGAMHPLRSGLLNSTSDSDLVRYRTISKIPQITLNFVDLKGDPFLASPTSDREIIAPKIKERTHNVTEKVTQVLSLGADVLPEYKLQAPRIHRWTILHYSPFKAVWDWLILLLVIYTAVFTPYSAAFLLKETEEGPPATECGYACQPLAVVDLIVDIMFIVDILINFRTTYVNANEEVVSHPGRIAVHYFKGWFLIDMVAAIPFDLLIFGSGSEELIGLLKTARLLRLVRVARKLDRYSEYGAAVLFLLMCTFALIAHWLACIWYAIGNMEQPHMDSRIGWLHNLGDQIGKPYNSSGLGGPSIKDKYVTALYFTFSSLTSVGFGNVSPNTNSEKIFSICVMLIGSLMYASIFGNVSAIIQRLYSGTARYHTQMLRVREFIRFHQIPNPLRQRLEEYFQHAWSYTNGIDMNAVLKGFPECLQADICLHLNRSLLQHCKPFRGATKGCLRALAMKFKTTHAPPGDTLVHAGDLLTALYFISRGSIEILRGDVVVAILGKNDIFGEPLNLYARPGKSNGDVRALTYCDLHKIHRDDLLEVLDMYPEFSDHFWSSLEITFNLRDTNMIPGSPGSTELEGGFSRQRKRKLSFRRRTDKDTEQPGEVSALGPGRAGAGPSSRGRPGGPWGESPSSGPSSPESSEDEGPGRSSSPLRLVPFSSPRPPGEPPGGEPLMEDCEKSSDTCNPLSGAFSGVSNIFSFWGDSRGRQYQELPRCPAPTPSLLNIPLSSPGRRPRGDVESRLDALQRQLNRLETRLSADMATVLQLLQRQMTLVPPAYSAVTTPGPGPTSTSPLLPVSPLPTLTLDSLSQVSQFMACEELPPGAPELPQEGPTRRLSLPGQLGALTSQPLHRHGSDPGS

Turning to `FC1(CNc2nc(-c3cnn(C4CCCC4)c3)cc3ncccc23)CCCNC1` (racemic) [Example 8, 7-(1-cyclopentyl-1H-pyrazol-4-yl)-N-[(3-fluoro-3-piperidinyl)methyl]-1,6-naphthyridin-5-amine], the IC50 in data set [1] (as the free base) is not above 100 nM; in data set [3] (setting [8]) it was less than 1000 nM; in data set [3] (setting [10]) it was not above 1000 nM. Further, the IC50 at 2 h in data set [2] (setting [8]) and in data set [2] (setting [9]) was more than 10000 nM in each case.

Consider `FC1(CNc2nc(-c3cnn(Cc4ccccc4)c3)cc3ncccc23)CCCNC1` (racemic) [Example 10, N-[(3-fluoro-3-piperidinyl)methyl]-7-[1-(phenylmethyl)-1H-pyrazol-4-yl]-1,6-naphthyridin-5-amine], for which the IC50 was not above 100 nM in data set [1] (as the free base), less than 1000 nM in data set [3] (setting [8]) and not above 1000 nM in data set [3] (setting [10]). Moreover, the IC50 at 2 h in data set [2] (setting [8]) and in data set [2] (setting [9]) was more than 10000 nM in each case.

As to `FC(F)(F)Cn1cc(-c2cc3ncccc3c(NCC3(F)CCCNC3)n2)cn1` (single isomer, unassigned) [Example 9A, N-{[3-fluoro-3-piperidinyl]methyl}-7-[1-(2,2,2-trifluoroethyl)-1H-pyrazol-4-yl]-1,6-naphthyridin-5-amine], the IC50 was not above 100 nM in data set [1] (as the free base), less than 1000 nM in data set [3] (setting [8]) and not above 1000 nM in data set [3] (setting [10]). Also, the IC50 at 2 h in data set [2] (setting [8]) and in data set [2] (setting [9]) was more than 10000 nM in each case.

Regarding `CC(C)n1cc(-c2cc3ncccc3c(NCC3(F)CCCNC3)n2)cn1` (single isomer, unassigned) [Example 11A, N-{[3-fluoro-3-piperidinyl]methyl}-7-[1-(1-methylethyl)-1H-pyrazol-4-yl]-1,6-naphthyridin-5-amine], the IC50 in data set [1] (as the free base) was not above 100 nM; in data set [3] (setting [8]) it was less than 1000 nM; in data set [3] (setting [10]), not above 1000 nM. Moreover, the IC50 at 2 h in data set [2] (setting [8]) and in data set [2] (setting [9]) was more than 10000 nM each time.

Take `CC(C)(O)Cn1cc(-c2cc3ncccc3c(NC[C@]3(F)CCCNC3)n2)cn1` [Example 5, 1-{4-[5-({[(3S)-3-fluoro-3-piperidinyl]methyl}amino)-1,6-naphthyridin-7-yl]-1H-pyrazol-1-yl}-2-methyl-2-propanol]: the figures for the IC50 in data set [1] (as the free base) and in data set [3] (setting [10]) were not above 100 nM and not above 1000 nM, respectively. Further, the IC50 at 2 h in data set [2] (setting [8]) and in data set [2] (setting [9]) was more than 10000 nM each time.

With `OCCn1cc(-c2cc3ncccc3c(NC[C@]3(F)CCCNC3)n2)cn1` [Example 6, 2-{4-[5-({[(3S)-3-fluoro-3-piperidinyl]methyl}amino)-1,6-naphthyridin-7-yl]-1H-pyrazol-1-yl}ethanol], the IC50 in data set [1] (hydrochloric acid salts) is not above 316 nM; in data set [3] (setting [11]), less than 1000 nM; in data set [3] (setting [12]) it was not above 1000 nM. Besides, the IC50 at 2 h is more than 20000 nM in data set [2] (setting [11]) and more than 10000 nM in data set [2] (setting [12]).

Turning to `COCCn1cc(-c2cc3ncccc3c(NC[C@]3(F)CCCNC3)n2)cn1` [Example 7, N-{[(3S)-3-fluoro-3-piperidinyl]methyl}-7-{1-[2-(methyloxy)ethyl]-1H-pyrazol-4-yl}-1,6-naphthyridin-5-amine], the IC50 was not above 100 nM in data set [1] (as the free base), less than 1000 nM in data set [3] (setting [8]) and not above 1000 nM in data set [3] (setting [10]). The IC50 at 2 h in data set [2] (setting [8]) and in data set [2] (setting [9]) was more than 10000 nM each time.

Take `Oc1cccc(Nc2ncc(F)c(Nc3cccc(O)c3)n2)c1` [Example R112]: in data set [4], the PGD2 result is listed as “statistically significant decrease” and the clinical safety entry was “safe across a range of indicators”. In addition, the efficacy versus placebo entry in data set [5] is “lack of efficacy”.

Consider `COc1cc(Nc2ncc(F)c(Nc3ccc4c(n3)N(COP(=O)(O)O)C(=O)C(C)(C)O4)n2)cc(OC)c1OC` [Example R788, fostamatinib disodium], for which the therapeutic benefit result in data set [6] (patients with DLBCL and CLL/SLL) is “therapeutic benefit”. Moreover, in data set [6] (patients with relapsed or refractory B-Cell NHL), the tolerability result was “well-tolerated”.

For the compound `COc1cc(/C=C/C(=O)CC(=O)/C=C/c2ccc(O)c(OC)c2)ccc1O` [curcumin], the “tumour burden as measured by the total splenocyte number” value in data set [7] is recorded as “significant reduction”.
